Reference: patent publication US12162890B2 (Novartis AG, priority 2015, dated 2024)

Molecular target: HEK293 cells with stable expression of the GRIN1 gene and tetracycline-inducible expression of the GRIN2B gene (NMDA receptor, NR2B) (Homo sapiens, UniProt Q13224)
Assay: Fluo-8 Ca2+ flux assay: reversal of Ro 25-6981-mediated suppression of the Ca2+ response to co-agonist (glutamate/glycine); also: test concentration or dose not given here
Assay type: cell-based
Conditions: reversal of the Ro 25-6981 suppression of the Ca2+ response to co-agonist (glutamate/glycine)

Sequence of HEK293 cells with stable expression of the GRIN1 gene and tetracycline-inducible expression of the GRIN2B gene (NMDA receptor, NR2B) (Q13224 27-1484, other chains not shown): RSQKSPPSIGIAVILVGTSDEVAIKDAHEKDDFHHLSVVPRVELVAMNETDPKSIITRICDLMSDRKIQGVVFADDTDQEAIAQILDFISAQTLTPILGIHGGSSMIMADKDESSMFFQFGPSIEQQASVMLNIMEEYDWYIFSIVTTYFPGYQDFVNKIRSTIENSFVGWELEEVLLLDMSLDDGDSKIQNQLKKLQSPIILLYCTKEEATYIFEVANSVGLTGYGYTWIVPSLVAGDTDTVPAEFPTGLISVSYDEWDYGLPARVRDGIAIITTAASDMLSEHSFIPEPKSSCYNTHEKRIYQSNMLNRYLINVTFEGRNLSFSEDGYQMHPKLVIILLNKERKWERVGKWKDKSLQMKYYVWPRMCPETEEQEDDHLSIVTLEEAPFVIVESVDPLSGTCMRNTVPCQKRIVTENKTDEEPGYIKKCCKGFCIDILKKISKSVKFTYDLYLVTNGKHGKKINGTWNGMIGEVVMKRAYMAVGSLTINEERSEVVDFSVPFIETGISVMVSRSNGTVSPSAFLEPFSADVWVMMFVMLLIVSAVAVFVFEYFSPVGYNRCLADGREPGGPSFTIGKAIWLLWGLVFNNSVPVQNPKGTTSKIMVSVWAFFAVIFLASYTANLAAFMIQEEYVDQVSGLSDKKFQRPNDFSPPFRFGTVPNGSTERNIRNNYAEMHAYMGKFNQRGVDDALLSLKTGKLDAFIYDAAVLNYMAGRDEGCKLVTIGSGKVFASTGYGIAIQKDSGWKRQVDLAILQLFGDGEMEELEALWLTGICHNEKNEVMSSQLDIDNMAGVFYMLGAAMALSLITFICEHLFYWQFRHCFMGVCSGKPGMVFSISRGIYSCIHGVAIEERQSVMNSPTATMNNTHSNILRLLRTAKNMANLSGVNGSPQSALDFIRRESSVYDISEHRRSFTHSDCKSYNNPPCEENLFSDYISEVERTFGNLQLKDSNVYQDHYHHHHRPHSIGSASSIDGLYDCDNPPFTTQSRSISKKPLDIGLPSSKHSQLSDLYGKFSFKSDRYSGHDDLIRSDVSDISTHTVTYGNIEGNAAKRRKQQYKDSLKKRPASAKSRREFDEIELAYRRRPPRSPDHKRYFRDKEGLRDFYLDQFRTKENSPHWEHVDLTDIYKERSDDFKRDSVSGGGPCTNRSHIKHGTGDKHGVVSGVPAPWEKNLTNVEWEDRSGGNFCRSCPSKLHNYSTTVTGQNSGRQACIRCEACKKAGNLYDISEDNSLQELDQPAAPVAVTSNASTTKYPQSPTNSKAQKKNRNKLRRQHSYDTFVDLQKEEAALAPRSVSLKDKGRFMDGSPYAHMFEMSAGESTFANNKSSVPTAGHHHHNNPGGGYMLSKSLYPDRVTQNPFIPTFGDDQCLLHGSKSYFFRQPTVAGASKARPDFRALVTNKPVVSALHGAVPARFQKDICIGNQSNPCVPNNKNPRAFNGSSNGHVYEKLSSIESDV

Question: `O=C(Cn1ccn2c(C3CC3)nc(-c3ccc(F)c(Cl)c3)c2c1=O)N1CCC(F)C1` (stereo not shown) [Example 432, 1-(3-chloro-4-fluorophenyl)-3-cyclopropyl-7-(2-(3-fluoropyrrolidin-1-yl)-2-oxoethyl)imidazo[1,5-a]pyrazin-8(7H)-one] was tested. Which “Response Recovered (%)” value did it give?
Answer: 19%

Question: With `O=C(Cn1ccn2c(C3CC3)nc(-c3ccc(Cl)c(Cl)c3)c2c1=O)N1CCC(F)C1` (stereo not shown) [Example 433, 3-cyclopropyl-1-(3,4-dichlorophenyl)-7-(2-(3-fluoropyrrolidin-1-yl)-2-oxoethyl)imidazo[1,5-a]pyrazin-8(7H)-one] as the compound, how does the “Response Recovered (%)” value read?
Answer: 68%

Question: How did the “Response Recovered (%)” value turn out when `O=C(Cn1ccn2c(C3CC3)nc(-c3ccc(F)c(C(F)(F)F)c3)c2c1=O)N1CCC(F)C1` (stereo not shown) [Example 434, 3-cyclopropyl-1-(4-fluoro-3-(trifluoromethyl)phenyl)-7-(2-(3-fluoropyrrolidin-1-yl)-2-oxoethyl)imidazo[1,5-a]pyrazin-8(7H)-one] was run?
Answer: 40%

Question: How did the “Response Recovered (%)” value turn out when `CC1(F)CN(C(=O)Cn2ccn3c(C4CC4)nc(-c4ccc(Cl)c(Cl)c4)c3c2=O)C1` [Example 435, 3-cyclopropyl-1-(3,4-dichlorophenyl)-7-(2-(3-fluoro-3-methylazetidin-1-yl)-2-oxoethyl)imidazo[1,5-a]pyrazin-8(7H)-one] was run?
Answer: 120%

Question: With `CC1(F)CN(C(=O)Cn2ccn3c(C4CC4)nc(-c4ccc(F)c(Cl)c4)c3c2=O)C1` [Example 436, 1-(3-chloro-4-fluorophenyl)-3-cyclopropyl-7-(2-(3-fluoro-3-methylazetidin-1-yl)-2-oxoethyl)imidazo[1,5-a]pyrazin-8(7H)-one] as the compound, how does the “Response Recovered (%)” value read?
Answer: 100%

Question: With `CC1(F)CN(C(=O)Cn2ccn3c(C4CC4)nc(-c4cnc(Cl)c(Cl)c4)c3c2=O)C1` [Example 437, 3-cyclopropyl-1-(5,6-dichloropyridin-3-yl)-7-(2-(3-fluoro-3-methylazetidin-1-yl)-2-oxoethyl)imidazo[1,5-a]pyrazin-8(7H)-one] as the compound, how does the “Response Recovered (%)” value read?
Answer: 65%

Question: Which “Response Recovered (%)” value does the source give for `CC1(F)CN(C(=O)Cn2ccn3c(C4CC4)nc(-c4ccc(F)c(C(F)(F)F)c4)c3c2=O)C1` [Example 438, 3-cyclopropyl-1-(4-fluoro-3-(trifluoromethyl)phenyl)-7-(2-(3-fluoro-3-methylazetidin-1-yl)-2-oxoethyl)imidazo[1,5-a]pyrazin-8(7H)-one] here?
Answer: 79%

Question: For `O=C(Cn1ccn2c(C3CC3)nc(-c3ccc(F)c(Cl)c3)c2c1=O)N1CC(F)(CF)C1` [Example 439, 1-(3-chloro-4-fluorophenyl)-3-cyclopropyl-7-(2-(3-fluoro-3-(fluoromethyl)azetidin-1-yl)-2-oxoethyl)imidazo[1,5-a]pyrazin-8(7H)-one], which “Response Recovered (%)” value is on record?
Answer: 120%

Question: With `O=C(Cn1ccn2c(C3CC3)nc(-c3ccc(Cl)c(Cl)c3)c2c1=O)N1CC(F)(CF)C1` [Example 440, 3-cyclopropyl-1-(3,4-dichlorophenyl)-7-(2-(3-fluoro-3-(fluoromethyl)azetidin-1-yl)-2-oxoethyl)imidazo[1,5-a]pyrazin-8(7H)-one] as the compound, how does the “Response Recovered (%)” value read?
Answer: 110%

Question: How did the “Response Recovered (%)” value turn out when `CC1(F)CN(C(=O)Cn2ccn3c(C4CC4)nc(-c4cnc(F)c(Cl)c4)c3c2=O)C1` [Example 441, 1-(5-chloro-6-fluoropyridin-3-yl)-3-cyclopropyl-7-(2-(3-fluoro-3-methylazetidin-1-yl)-2-oxoethyl)imidazo[1,5-a]pyrazin-8(7H)-one] was run?
Answer: 46%

Question: How did the “Response Recovered (%)” value turn out when `Cc1cc(-c2nc(C3CC3)n3ccn(CC(=O)N4CC(C)(F)C4)c(=O)c23)ccc1F` [Example 442, 3-cyclopropyl-7-(2-(3-fluoro-3-methylazetidin-1-yl)-2-oxoethyl)-1-(4-fluoro-3-methylphenyl)imidazo[1,5-a]pyrazin-8(7H)-one] was run?
Answer: 65%

Question: With `Cc1cc(-c2nc(C3CC3)n3ccn(CC(=O)N4CC(C)(F)C4)c(=O)c23)ccc1Cl` [Example 443, 1-(4-chloro-3-methylphenyl)-3-cyclopropyl-7-(2-(3-fluoro-3-methylazetidin-1-yl)-2-oxoethyl)imidazo[1,5-a]pyrazin-8(7H)-one] as the compound, how does the “Response Recovered (%)” value read?
Answer: 120%

Question: With `CC1(F)CN(C(=O)Cn2ccn3cnc(-c4ccc(F)c(Cl)c4)c3c2=O)C1` [Example 445, 1-(3-chloro-4-fluorophenyl)-7-(2-(3-fluoro-3-methylazetidin-1-yl)-2-oxoethyl)imidazo[1,5-a]pyrazin-8(7H)-one] as the compound, how does the “Response Recovered (%)” value read?
Answer: 34%

Question: `CC1(F)CN(C(=O)Cn2ccn3cnc(-c4ccc(F)c(C(F)(F)F)c4)c3c2=O)C1` [Example 446, 1-(4-fluoro-3-(trifluoromethyl)phenyl)-7-(2-(3-fluoro-3-methylazetidin-1-yl)-2-oxoethyl)imidazo[1,5-a]pyrazin-8(7H)-one] was tested. Which “Response Recovered (%)” value did it give?
Answer: 68%

Question: Which “Response Recovered (%)” value does the source give for `CC1(F)CN(C(=O)Cn2ccn3cnc(-c4ccc(Cl)c(Cl)c4)c3c2=O)C1` [Example 447, 1-(3,4-dichlorophenyl)-7-(2-(3-fluoro-3-methylazetidin-1-yl)-2-oxoethyl)imidazo[1,5-a]pyrazin-8(7H)-one] here?
Answer: 58%

Question: `O=C(Cn1ccc2ncc(-c3ccc(F)c(C(F)(F)F)c3)n2c1=O)N1CCC(F)C1` (stereo not shown) [Example 448, 3-(4-fluoro-3-(trifluoromethyl)phenyl)-6-(2-(3-fluoropyrrolidin-1-yl)-2-oxoethyl)imidazo[1,2-c]pyrimidin-5(6H)-one] was tested. Which “Response Recovered (%)” value did it give?
Answer: 14%

Question: With `O=C(Cn1ccc2ncc(-c3cnc(Cl)c(C(F)(F)F)c3)n2c1=O)N1CCC(F)C1` (stereo not shown) [Example 449, 3-(6-chloro-5-(trifluoromethyl)pyridin-3-yl)-6-(2-(3-fluoropyrrolidin-1-yl)-2-oxoethyl)imidazo[1,2-c]pyrimidin-5(6H)-one] as the compound, how does the “Response Recovered (%)” value read?
Answer: 5.2%

Question: How did the “Response Recovered (%)” value turn out when `O=C(Cn1ccc2ncc(-c3ccc(Cl)c(Cl)c3)n2c1=O)N1CCC(F)C1` (stereo not shown) [Example 450, 3-(3,4-dichlorophenyl)-6-(2-(3-fluoropyrrolidin-1-yl)-2-oxoethyl)imidazo[1,2-c]pyrimidin-5(6H)-one] was run?
Answer: 33%

Question: For `O=C(Cn1ccc2ncc(-c3ccc(F)c(Cl)c3)n2c1=O)N1CCC(F)C1` (stereo not shown) [Example 451, 3-(3-chloro-4-fluorophenyl)-6-(2-(3-fluoropyrrolidin-1-yl)-2-oxoethyl)imidazo[1,2-c]pyrimidin-5(6H)-one], which “Response Recovered (%)” value is on record?
Answer: 23%

Question: `Cc1cn(CC(=O)N2CCC(F)C2)c(=O)n2c(-c3ccc(F)c(Cl)c3)cnc12` (stereo not shown) [Example 452, 3-(3-chloro-4-fluorophenyl)-6-(2-(3-fluoropyrrolidin-1-yl)-2-oxoethyl)-8 methylimidazo[1,2-c]pyrimidin-5(6H)-one] was tested. Which “Response Recovered (%)” value did it give?
Answer: 7.5%

Question: For `Cc1cn(CC(=O)N2CCC(F)C2)c(=O)n2c(-c3ccc(Cl)c(Cl)c3)cnc12` (stereo not shown) [Example 453, 3-(3,4-dichlorophenyl)-6-(2-(3-fluoropyrrolidin-1-yl)-2-oxoethyl)-8-methylimidazo[1,2-c]pyrimidin-5(6H)-one], which “Response Recovered (%)” value is on record?
Answer: 26%

Question: For `Cc1cn(CC(=O)N2CCC(F)C2)c(=O)n2c(-c3ccc(F)c(C(F)(F)F)c3)cnc12` (stereo not shown) [Example 454, 3-(4-fluoro-3-(trifluoromethyl)phenyl)-6-(2-(3-fluoropyrrolidin-1-yl)-2-oxoethyl)-8-methylimidazo[1,2-c]pyrimidin-5(6H)-one], which “Response Recovered (%)” value is on record?
Answer: 35%
